Earlier results on 2 compounds are cited in patent US10300065B2, “Method of treating or prevention of atherothrombotic events in patients with history of myocardial infarction” (ASTRAZENECA AB, priority 2015, dated 2019).

The structures appear in SMILES notation.

For series [1] the following is noted: human, in vivo, po; cited from earlier work.
Series [2] deals with patients with acute coronary syndrome. To be noted: PLATO, cited from earlier work.

As to `CCCSc1nc(N[C@@H]2C[C@H]2c2ccc(F)c(F)c2)c2nnn([C@@H]3C[C@H](O)[C@@H](O)[C@H]3O)c2n1` [AR-C124910XX], in series [1], the “AUC and cmax of crushed tablets relative to whole tablets (bioequivalence)” value is listed as 80-125%.

Regarding `COC(=O)[C@H](c1ccccc1Cl)N1CCc2sccc2C1` [clopidogrel], the “serum uric acid level increase from baseline” value in series [2] (clopidogrel) is “approximately 0.2 mg/dL”. In series [2] (each treatment group), the reports of gout is reported as 0.6%.
